Source: publication PMC3514216, “SRC Homology 2 Domain Binding Sites in Insulin, IGF-1 and FGF receptor mediated signaling networks reveal an extensive potential interactome” (Cell Communication and Signaling : CCS, 2012)

How the values were obtained:
Rasa1_C SH2 domain = target: T1, Rasa1_C SH2 domain (Homo sapiens, UniProt P20936); experiment: SPOT peptide array; assay type: binding; settings: GST-SH2 0.25 μM, membrane-bound peptide, 1 mM DTT, LiCor read-out
T1 sequence (P20936 351-441 limits assumed): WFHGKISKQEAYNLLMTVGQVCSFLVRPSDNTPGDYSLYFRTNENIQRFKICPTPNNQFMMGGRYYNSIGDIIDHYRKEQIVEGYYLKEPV

panel of 50 SH2 domains = experiment: SPOT peptide array probed with each of 50 GST-SH2 domains; assay type: binding; settings: SH2 domains with intensity >3X array mean; GST-SH2 0.25 μM, 1 mM DTT
Method in brief: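 Each GST-fused SH2 domain was overlaid on 192 membrane-synthesized pTyr peptides (11-mers, 4 N-terminal and 6 C-terminal flanking residues) and read with anti-GST and near-infrared secondary antibodies. Binding called relative to membrane mean intensity (>3× positive, <1× negative); GST-only probes defined nonspecific peptides.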

Nck1 SH2 domain [1] = target: T2, Nck1 SH2 domain (Homo sapiens, UniProt P16333); experiment: SPOT peptide array; assay type: binding; settings: GST-SH2 0.25 μM, membrane-bound peptide, 1 mM DTT, LiCor read-out
Method in brief: (§1)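 Membrane-bound 11-mer phosphotyrosine peptides (pTyr at position 5, four N-terminal and six C-terminal flanking residues; ~5 nmol per spot) from receptor, scaffold and signalling proteins were probed with GST–SH2 fusions. Bound domain was detected with anti-GST and near-infrared secondary antibodies; spots >3× membrane mean scored positive, <1× mean negative.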

Nck1 SH2 domain [2] = target: T2, Nck1 SH2 domain; design: method as in PMID 16636066; settings: peptide similar to the TIR10 peptide (EHIpYDEVAAD); read-out: Affinity (KD); cited from earlier work
Grb2 SH2 domain = Grb2 SH2 domain (Homo sapiens, UniProt P62993); experiment: Fluorescence polarization solution binding; settings: Rhodamine B-labeled peptide, GST-SH2, Beacon 2000, read-out: Affinity (KD)
Sequence of Grb2 SH2 domain (P62993 60-152 limits assumed): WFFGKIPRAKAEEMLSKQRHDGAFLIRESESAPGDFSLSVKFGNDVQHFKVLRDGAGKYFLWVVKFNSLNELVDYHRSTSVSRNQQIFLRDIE
Excerpt: (§2) To verify the binding results obtained from addressable peptide arrays we employed an orthogonal method of determining SH2 interactions with peptide ligands. We measured the dissociation constants of 60 binary SH2-peptide pairs in solution by fluorescence polarization (Table 2, Additional file 2: Figures S3A-C).
(§3) Peptides were synthesized using FMOC-chemistry onto pre-loaded tenta-gel resins. Peptides were then labeled with Rhodamine B (Abbey Color) and then cleaved using trifluoroacetic acid. Peptides were lyophilized and then purified using a LC/MS (Agilent 2100). Dissociation constants were measured using the Beacon 2000 (Invitrogen) as previously described.
(§4) Binding Affinities determined by Fluorescence Polarization. Rhodamine B-labeled peptides were mixed with varying concentrations of GST-tagged SH2 domains. Fluorescence polarization measurements were read on a Beacon 2000 (Invitrogen). The curves were fit to a Michaelis-Menten equation to calculate the dissociation constant, KD. […] (C) Affinity measurements that fell below the 2X mean intensity and were considered array negative on the SPOT array.

CrkL SH2 domain = CrkL SH2 domain (Homo sapiens, UniProt P46109); experiment: Fluorescence polarization solution binding; settings: Rhodamine B-labeled peptide, GST-SH2, Beacon 2000, read-out: Affinity (KD)
Sequence of CrkL SH2 domain (P46109 14-102 limits assumed): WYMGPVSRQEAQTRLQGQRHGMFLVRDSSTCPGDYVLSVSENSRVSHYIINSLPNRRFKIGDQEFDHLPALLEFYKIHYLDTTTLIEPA
Excerpt: as §2, §3, §4

PI3K1_N SH2 domain = PI3K1_N SH2 domain (Homo sapiens, UniProt P27986); experiment: Fluorescence polarization solution binding; settings: Rhodamine B-labeled peptide, GST-SH2, Beacon 2000, read-out: Affinity (KD)
Sequence of PI3K1_N SH2 domain (P27986 333-428 limits assumed): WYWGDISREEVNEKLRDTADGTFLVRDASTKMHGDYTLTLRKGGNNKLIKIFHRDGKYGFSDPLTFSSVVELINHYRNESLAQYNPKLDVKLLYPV
Excerpt: as §2, §3, §4

Lck SH2 domain = experiment: SPOT peptide array; assay type: binding; settings: GST-SH2 0.25 μM
Bmx SH2 domain = experiment: SPOT peptide array; assay type: binding; settings: GST-SH2 0.25 μM, membrane-bound peptide, 1 mM DTT, LiCor read-out
Method in brief: as §1

Src SH2 domain [3] = target: T3, Src SH2 domain (Homo sapiens, UniProt P12931); experiment: SPOT peptide array; assay type: binding; settings: GST-SH2 0.25 μM
Method in brief: as §1

Src SH2 domain [4] = target: T3, Src SH2 domain; design: method as in 2 sources, ref [19] = [19]; PMID 7680959; doi:10.1016/0092-8674(93)90404-e; Songyang Z Shoelson SE Chaudhuri M Gish G Pawson T Haser WG King F Roberts T Ratnofsky S Lechleider RJ SH2 domains recognize specific phosphopeptide sequences Cell 1993 72 767 778 7680959 10.1016/0092 ||| ref [119, 121] = [119]; PMID 9032297; doi:10.1128/mcb.17.3.1702; Schlaepfer DD Broome MA Hunter T Fibronectin-stimulated signaling from a focal adhesion kinase-c-Src complex: involvement of the Grb2, p130cas, and Nck adaptor proteins Mol Cell Biol 1997 17 1702 1713 || [121]; PMID 16245368; doi:10.1002/jmr.755; Nasertorabi F Tars K Becherer K Kodandapani R Liljas L Vuori K Ely KR Molecular basis for regulation of Src by the docking protein p130Cas J Mol Recognit 2006 19 30 38 16245368 10.1002/jmr.755; settings: read-out: Affinity (KD); cited from earlier work
[5] = membrane-bound peptide, 1 mM DTT, LiCor read-out
[6] = spot intensity as factor of array mean

Q: Which Array positive (Rasa1_C SH2 domain) does the source give for “QDSLpYSDPLDS [11-mer phosphotyrosine peptide, p62DOK1 (Y315)]” here?
A: Yes (Array-positive binding was ascribed to interactions with intensities greater than three times the array mean)

Q: What about the “Other SH2 domains bound (additional array-positive SH2 domains)” value (panel of 50 SH2 domains) of the same molecule?
A: Abl1, Blk, Crk, Lck, Lyn, Nck1, Src, Zap70_N

Q: Which Array positive (Nck1 SH2 domain [1]) does the source give for “GLDEpYDEVPMP [11-mer phosphotyrosine control peptide, B3AT (Y921), similar to the TIR10 peptide, reference compound]” here?
A: Yes (Array-positive binding was ascribed to interactions with intensities greater than three times the array mean)

Q: And the Kd (Nck1 SH2 domain [2])?
A: 0.06 µM

Q: With `CC[C@H](C)[C@H](NC(=O)[C@H](Cc1ccc(OP(=O)(O)O)cc1)NC(=O)[C@H](CC(N)=O)NC(=O)[C@H](CC(C)C)NC(=O)CNC(=O)[C@@H](N)CC(N)=O)C(=O)N[C@@H](CC(=O)O)C(=O)N[C@@H](CC(C)C)C(=O)N[C@@H](CC(=O)O)C(=O)N[C@@H](CC(C)C)C(=O)N[C@H](C(=O)O)C(C)C` [NGLNpYIDLDLV] as the molecule, how does the Kd (Grb2 SH2 domain) read?
A: > 50 µM

Q: What about the Kd (CrkL SH2 domain) of the same molecule?
A: > 50 µM

Q: And the Kd (PI3K1_N SH2 domain)?
A: 15 µM

Q: Which results are given for “WMEDpYDYVHLQ [11-mer phosphotyrosine peptide, p130Cas (Y664)]”?
A: Array positive (Lck SH2 domain; [5]): No (Peptide spots with average intensity values between 1X-3X the array mean were defined as ‘indeterminate’. Those with intensities below 1X mean were defined as array negative); Peptide array intensity (X mean) (Lck SH2 domain; [6]): 2.03 X Mean; Array positive (Bmx SH2 domain): Yes (Array-positive binding was ascribed to interactions with intensities greater than three times the array mean); Array positive (Src SH2 domain [3]; [5]): No (Peptide spots with average intensity values between 1X-3X the array mean were defined as ‘indeterminate’. Those with intensities below 1X mean were defined as array negative); Peptide array intensity (X mean) (Src SH2 domain [3]; [6]): 2.45 X Mean; Array positive (Nck1 SH2 domain [1]): Yes (Array-positive binding was ascribed to interactions with intensities greater than three times the array mean); Kd (Src SH2 domain [4]): 0.025 to 0.046 µM; Other SH2 domains bound (additional array-positive SH2 domains) (panel of 50 SH2 domains): Bcar3, Brk, Crk, Crkl, Dapp1, Fer, Grb7, Matk, PI3K1_N, Rasa1_N, Rasa1_C, Sh3bp2 and Itk
